# Experiments:
# [1] = system: hemp clones cv. Cherry in the vegetative stage; experiment: Root drench of MeJA or MDJ, phytotoxicity; format: in vivo, Cannabis spp.; details: for plants deceased in 72 hours: 250 mL, n=4; for phytotoxicity to plants in the vegetative stage: root drench, concentrations above 10 mM, within 72 hours
# Procedure: To investigate if higher concentrations of jasmonate elicitors would be tolerated in cannabis by root drench, four different concentrations, [7.5 mM], [10 mM], [15 mM] and [20 mM] were applied to hemp clones (n=4 per treatment group, cv.: Cherry, CBDRx) in the vegetative stage. Treatment concentrations were prepared from methyl dihydrojasmonate (MDJ, TCI, CAS No.: 24851-98-7) and methyl Jasmonate (MeJA, TCI, CAS No.: […]) with 1% TWEEN®-20 added (VWR, CAS No.: […]).
# The roots of each clone in each treatment group were treated with 250 mL of each compound once per week. Plants were grown under a total of 12 Boost (Thrive Agritech, NY) 130-watt LED lights set to 18L: 6D photoperiod during the vegetative phase (2 weeks) or until phytotoxicity observed.
# seedling mold = experiment: Fungal plug growth on jasmonate-infused PDA plates; format: cell-based, Trichoderma ghanense; details: for seedling mold growth: 1 mM, 4.25 mM, 10 mM in PDA, 72 hours post inoculation
# Procedure: (§1) MDJ (TCI, CAS No.: 24851-98-7) and CJ were infused into potato dextrose agar (PDA, VWR Cat No.: 90003-494) petri dishes (100×15 mm VWR, Cat No: 25384-094) at concentrations ranging from 1 mM, 4.25 mM, and 10 mM. Each treatment was prepared using a technical grade stock solution of pure chemical (CJ or MDJ) diluted with TWEEN®-20 (VWR, CAS No.: […]). Culturable oyster mushroom and seedling mold served to create fungal mycelial plugs using a sterile 1 mL pipette tip (Eppendorf, Cat No.: 022491458) held upside down. The tips were used to make circle excisions (i.e., fungal plugs) from a mycelial mat grown on PDA with no biochemical infusions. Fungal pugs were then transferred to PDA infused with varying concentrations of CJ or MDJ, and control plates (no CJ or MDJ infusion) to monitor fungal growth at room temperature over time.
# To compare the efficacy of MDJ and MeJA at inhibiting the same seedling mold as used in the experiment above, a second experiment was conducted using PDA plates infused with either MDJ or MeJA at different concentrations. All plates were generated and inoculated as described above and incubated at room temperature under identical conditions. Shown in FIGS. 9A-9C are plates of seedling mold 72 hours post fungal inoculation. Control plates are shown on the top row, followed by concentrations of MeJA (left) and MDJ (right) in duplicate at 1 mM (FIG. 9A), 4.25 mM (FIG. 9B), and 10 mM (FIG. 9C). […] Subsequent sequence analysis identified the “seedling mold” as Trichoderma ghanense.
# [2] = system: Pencicillium sclerotigenum; experiment: Mold growth on jasmonate-infused plates, mold isolated from sweet potato; format: cell-based; details: 1 mM, 5 mM, 10 mM, or 20 mM in plates
# Procedure: as §1
# Based on the above results in Cannabis spp., additional fungi from various crops was sampled and tested. Plates comprising various concentrations of MDJ or MJ were prepared as described above.
# Fusarium ventricosum = experiment: MDJ spray on cannabis 'Jack Herer' plants infected with Fusarium ventricosum; format: in vivo
# Procedure: To investigate the efficacy of MDJ at inhibiting Fusarium ventricosum, plants of the cannabis variety ‘Jack Herer’ were infected and treated with either 1 mM or 10 mM MDJ. Briefly, after two weeks in vegetative light cycle, ‘Jack Herer’ plants were moved to flowering cycle and sprayed with 1 mM or 10 mM methyl dihydrojasmonate on 4/12/21. After 72 hours (4/15/21) all plants were infected with Fusarium ventricosum cultured on potato dextrose agar. Plants were infected using a fungal pick to inoculate the fungal culture at the stem of the plant. No visual signs of infection were observed after two weeks, so all plants were reinfected using a PDA and liquid culture of F. ventricosum on 4/28/21 and again on 5/14/21. Plants were harvested and hung to dry on 6/11/21 and dry weights recorded on 6/16/21. After harvest, stem tissue was taken from each treatment group and plated onto potato dextrose agar. Fusarium ventricosum was reisolated from each group.
SMILES,plants deceased in 72 hours ([1]; root drench 15 mM),plants deceased in 72 hours ([1]; root drench 20 mM),phytotoxicity to plants in the vegetative stage [1],seedling mold growth (seedling mold),plants deceased in 72 hours ([1]; root drench 10 mM),"seedling mold growth compared to control (seedling mold; all concentrations (1 mM, 4.25 mM, 10 mM) in PDA, 72 hours and 10 days)","efficacy at inhibiting seedling mold, MDJ compared with MeJA (seedling mold; at the 1 mM concentration, 72 hours)",growth of mold isolated from sweet potato [2],flowers compared to the control (Fusarium ventricosum; 1 mM and 10 mM spray),leaves compared to the control (Fusarium ventricosum; 1 mM and 10 mM spray),plant biomass (dry weight) compared to the control group (Fusarium ventricosum; 1 mM and 10 mM spray 72 hours before infection)
"CC/C=C\C[C@H]1C(=O)CC[C@@H]1CC(=O)OC [MeJA, Methyl Jasmonate]",three out of four,three out of four,phytotoxic,inhibited,–,–,–,–,–,–,–
"CCCCCC1C(=O)CCC1CC(=O)OC (stereo not drawn) [MDJ, methyl dihydrojasmonate]",all four,all four,phytotoxic,inhibited,three out of four,showed inhibition,more effective,effective at preventing the growth,larger flowers,"more yellow, wilting leaves",prevention in biomass reduction

# From patent US11638427B2, “Methods and compositions for altering secondary metabolites in plants” (Impello Biosciences, Inc, priority 2020, dated 2023)
